Test results as given in patent US4923963A, “Bradykinin antagonist peptides” (Nova Technology Limited Partnership, priority 1987, dated 1990).
Square brackets hold non-standard residues; d marks the D form. Ends that are not written are not given here. Peptide text beside a SMILES is read from it. d2Nal = N[C@H](Cc1ccc2ccccc2c1)C(=O)O; Hyp = O=C(O)[C@@H]1C[C@@H](O)CN1; d2Thi = N[C@H](Cc1cccs1)C(=O)O

How the values were obtained:
isolated rat uterus = format: cell-based; details: for pA2 /RUT: agonist potency as percent of BK potency / pA2 /RUT: activity class: isolated rat uterus; for pA2 /RUT: activity class: not quantitated
How it was run: (§1)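 Antagonism of bradykinin-induced contraction in isolated rat uterus (natural or induced estrus) and guinea pig ileum. Antagonist preincubated 30 s before a double-ED50 bradykinin dose, with the dose raised until the response fell to that of a single ED50. pA2 is the negative log molar antagonist concentration achieving this (Schild method).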

[1] = test system: isolated guinea pig ileum; format: cell-based; design: pA2 /GPI: activity class: scale not given here; details: for pA2 /GPI: agonist potency as percent of BK potency / pA2 /GPI: activity class: isolated guinea pig ileum; for pA2 /GPI: activity class: not quantitated
How it was run: as §1

[2] = in vivo; cited from earlier work
pulmonary circulation = details: anesthetized rat; cited from earlier work
rat blood pressure = assay: effects on blood pressure in the anesthetized rat (RBP), intraaortic and intravenous bolus; format: in vivo; design: RBP-IA: activity class / RBP-IV: activity class: scale not given here; details: for RBP-IA: agonist potency as percent of BK potency / RBP-IV: agonist potency as percent of BK potency / RBP-IA: activity class / RBP-IV: activity class: rat blood pressure; for RBP-IA: agonist potency as percent of BK potency / RBP-IA: activity class: intraaortic bolus; for RBP-IV: agonist potency as percent of BK potency / RBP-IV: activity class: intravenous bolus; for % DESTR (metabolic breakdown of BK-like agonists in RBP assay): relative to BK = 100%
Protocol: The in vivo effects of bradykinin antagonists on blood pressure in the anesthetized rat are determined according to the assay described by Roblero, Ryan and Stewart (Res. Commun. Pathol. Pharmacol. 6:207, 1973). The antagonists also produce inhibition of the bradykinin response when injected as a bolus admixture of bradykinin plus antagonist by either the ia or iv route of administration.

Compound	pA2 /RUT: agonist potency as percent of BK potency (isolated rat uterus) [%]	pA2 /GPI: agonist potency as percent of BK potency [1] [%]	RBP-IA: agonist potency as percent of BK potency (rat blood pressure) [%]	RBP-IV: agonist potency as percent of BK potency (rat blood pressure) [%]	% DESTR (metabolic breakdown of BK-like agonists in RBP assay) (rat blood pressure) [%]	pA2 /RUT: activity class (isolated rat uterus)	pA2 /GPI: activity class [1]	RBP-IA: activity class (rat blood pressure)	RBP-IV: activity class (rat blood pressure)	also measured
RPPGFSPFR [bradykinin, Arg-Pro-Pro-Gly-Phe-Ser-Pro-Phe-Arg]										pD2 value (negative log of dose causing half maximal contraction) (isolated rat uterus; rat uterus): 7.9; pD2 value (negative log of dose causing half maximal contraction) ([1]; guinea pig ileum): 7.4; half life in the systemic circulation [2]: less than 30 seconds; destruction on a single passage through the pulmonary circulation (pulmonary circulation): 98-99%
CC[C@H](C)[C@H](NC(=O)[C@H](CCCNC(=N)N)NC(=O)[C@H](Cc1ccccc1)NC(=O)[C@@H]1CCCN1C(=O)[C@H](CO)NC(=O)[C@H](Cc1ccccc1)NC(=O)CNC(=O)[C@@H]1CCCN1C(=O)[C@@H]1CCCN1C(=O)[C@H](CCCNC(=N)N)NC(=O)[C@H](CCCCN)NC(=O)[C@@H](N)CCCCN)C(=O)N[C@@H](Cc1ccc(O)cc1)C(=O)O [Example 61, Lys-Lys-Arg-Pro-Pro-Gly-Phe-Ser-Pro-Phe-Arg-Ile-Tyr]	18	21	9	497	0					
RPPGFSPFRIY [Example 59, Arg-Pro-Pro-Gly-Phe-Ser-Pro-Phe-Arg-Ile-Tyr]	26	21	6	103	61					
CC(C)[C@@H](N)C(=O)N1CCC[C@H]1C(=O)N1C[C@H](O)C[C@H]1C(=O)NCC(=O)N[C@@H](Cc1ccccc1)C(=O)N[C@@H](CO)C(=O)N[C@H](Cc1ccccc1)C(=O)N[C@@H](Cc1ccccc1)C(=O)N[C@@H](CCCNC(=N)N)C(=O)O [Example 15, DVal-Pro-Hyp-Gly-Phe-Ser-DPhe-Phe-Arg] (H-[dV]P[Hyp]GFS[dF]FR-OH)						0	0	0	0	
N=C(N)NCCC[C@H](NC(=O)[C@H](Cc1ccccc1)NC(=O)[C@@H](Cc1cccs1)NC(=O)[C@H](CO)NC(=O)[C@H](Cc1ccccc1)NC(=O)CNC(=O)[C@@H]1CCCN1C(=O)[C@@H]1CCCN1C(=O)[C@H](N)Cc1cccs1)C(=O)O [Example 33, DThi-Pro-Pro-Gly-Phe-Ser-DThi-Phe-Arg] (H-[d2Thi]PPGFS[d2Thi]FR-OH)						0	0	0	0	
N=C(N)NCCC[C@H](NC(=O)[C@H](Cc1ccccc1)NC(=O)[C@@H](Cc1ccccc1)NC(=O)[C@H](CO)NC(=O)[C@H](Cc1ccccc1)NC(=O)CNC(=O)[C@@H]1C[C@@H](O)CN1C(=O)[C@@H]1CCCN1C(=O)[C@H](N)Cc1ccc2ccccc2c1)C(=O)O [Example 30, DNa]-Pro-Hyp-Gly-Phe-Ser-DPhe-Phe-Arg] (H-[d2Nal]P[Hyp]GFS[dF]FR-OH)		0.1				0		0	0	
N=C(N)NCCC[C@@H](N)C(=O)N[C@H](Cc1ccc2ccccc2c1)C(=O)N1CCC[C@H]1C(=O)N1CCC[C@H]1C(=O)NCC(=O)N[C@@H](Cc1ccccc1)C(=O)N[C@@H](CO)C(=O)N[C@H](Cc1cccs1)C(=O)N[C@@H](Cc1ccccc1)C(=O)N[C@@H](CCCNC(=N)N)C(=O)O [Example 39, DArg-DNal-Pro-Pro-Gly-Phe-Ser-DThi-Phe-Arg] (H-[dR][d2Nal]PPGFS[d2Thi]FR-OH)							0	0	0	pA2 /RUT (antagonist potency) (isolated rat uterus): 5.6
CC[C@H](C)[C@H](NC(=O)[C@H](CCCNC(=N)N)NC(=O)[C@H](Cc1ccccc1)NC(=O)[C@@H]1CCCN1C(=O)[C@H](CO)NC(=O)[C@H](Cc1ccccc1)NC(=O)CNC(=O)[C@@H]1CCCN1C(=O)[C@@H]1CCCN1C(=O)[C@H](CCCNC(=N)N)NC(=O)[C@H](N)CCCNC(=N)N)C(=O)N[C@@H](Cc1ccc(O)cc1)C(=O)O [Example 60, DArg-Arg-Pro-Pro-Gly-Phe-Ser-Pro-Phe-Arg-Ile-Tyr] (H-[dR]RPPGFSPFRIY-OH)	25	34	12	189	47					
[dK]KRPPGFSPRIY [Example 62]	5	1	5	165	0					
